For data set [1], the target named is T1, Vasoactive intestinal polypeptide receptor 1 (Homo sapiens, UniProt P32241). Also: in other assays of this panel Not Active means under 50% inhibition at 10 µM.
T1 sequence (P32241 whole entry): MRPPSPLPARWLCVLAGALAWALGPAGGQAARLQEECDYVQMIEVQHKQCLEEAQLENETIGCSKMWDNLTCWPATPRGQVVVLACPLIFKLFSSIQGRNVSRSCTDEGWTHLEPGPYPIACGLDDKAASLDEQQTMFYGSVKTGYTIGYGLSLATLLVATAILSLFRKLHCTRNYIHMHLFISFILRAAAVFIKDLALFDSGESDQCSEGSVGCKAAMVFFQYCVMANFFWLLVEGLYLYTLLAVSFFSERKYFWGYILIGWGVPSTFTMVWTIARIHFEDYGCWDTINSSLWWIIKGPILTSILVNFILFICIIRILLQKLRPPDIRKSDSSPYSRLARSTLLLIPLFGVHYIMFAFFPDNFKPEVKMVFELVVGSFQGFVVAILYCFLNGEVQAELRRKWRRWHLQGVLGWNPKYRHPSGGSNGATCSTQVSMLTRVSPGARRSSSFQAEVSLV
The format is cell membranes, Membrane. Particulars: ht-29.

The target in data set [2] is Receptor tyrosine-protein kinase erbB-2 (Homo sapiens, UniProt P04626). Format: cell-based. Particulars: insect cells.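 Also: inhibition of HER2 kinase enzyme activity, measured with Poly(Glu:Tyr) as the phosphorylation substrate; in other assays of this panel Not Active means under 50% inhibition at 10 µM.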
The target in data set [3] is Protein kinase C alpha type (Homo sapiens, UniProt P17252). The format is cell-based. The conditions noted are these: sf9.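 Also: inhibition of PKCalpha kinase activity measured in an enzyme assay with histone as the phosphorylation substrate; in other assays of this panel Not Active means under 50% inhibition at 10 µM.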
The target in data set [4] is T2, Cysteinyl leukotriene receptor 1 (Homo sapiens, UniProt Q9Y271). Also: in other assays of this panel Not Active means under 50% inhibition at 10 µM.
T2 sequence (Q9Y271 whole entry): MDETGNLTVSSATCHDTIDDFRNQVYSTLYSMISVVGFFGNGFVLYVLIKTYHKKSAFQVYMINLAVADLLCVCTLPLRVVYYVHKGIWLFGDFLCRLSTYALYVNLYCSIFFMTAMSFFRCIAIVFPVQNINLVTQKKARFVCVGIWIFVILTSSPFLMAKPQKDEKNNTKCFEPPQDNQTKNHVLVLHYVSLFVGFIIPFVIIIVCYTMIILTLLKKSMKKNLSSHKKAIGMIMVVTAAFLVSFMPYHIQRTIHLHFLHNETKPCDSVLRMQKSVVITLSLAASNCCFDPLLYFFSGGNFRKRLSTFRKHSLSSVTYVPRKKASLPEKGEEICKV
Format: cell membranes, CHO-K1, Membrane. The conditions noted are these: cho-k1.

For another data set, the target named is Cytochrome P450 3A4 (Homo sapiens, UniProt P08684). Particulars: bti-tn-5b1-4. Also: in other assays of this panel Not Active means under 50% inhibition at 10 µM.
Sequence of Cytochrome P450 3A4 (P08684 whole entry): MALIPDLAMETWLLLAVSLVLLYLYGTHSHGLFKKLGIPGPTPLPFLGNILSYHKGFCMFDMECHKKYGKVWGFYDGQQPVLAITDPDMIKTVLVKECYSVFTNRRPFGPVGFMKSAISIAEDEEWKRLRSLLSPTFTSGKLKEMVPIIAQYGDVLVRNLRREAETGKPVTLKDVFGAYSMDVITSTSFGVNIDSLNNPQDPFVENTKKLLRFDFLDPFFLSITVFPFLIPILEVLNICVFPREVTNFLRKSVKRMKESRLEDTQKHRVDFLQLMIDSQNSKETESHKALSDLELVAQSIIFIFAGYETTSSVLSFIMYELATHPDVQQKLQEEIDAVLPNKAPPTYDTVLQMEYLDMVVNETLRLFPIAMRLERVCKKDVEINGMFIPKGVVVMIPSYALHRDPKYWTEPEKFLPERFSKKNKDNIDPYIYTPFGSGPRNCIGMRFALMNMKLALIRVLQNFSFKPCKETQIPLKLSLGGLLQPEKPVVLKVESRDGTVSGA
The target in a further data set is Nitric oxide synthase 1 (Rattus norvegicus, UniProt P29476). The format is tissue-based, Cerebellum. Also: in other assays of this panel Not Active means under 50% inhibition at 10 µM.
Sequence of Nitric oxide synthase 1 (P29476 whole entry): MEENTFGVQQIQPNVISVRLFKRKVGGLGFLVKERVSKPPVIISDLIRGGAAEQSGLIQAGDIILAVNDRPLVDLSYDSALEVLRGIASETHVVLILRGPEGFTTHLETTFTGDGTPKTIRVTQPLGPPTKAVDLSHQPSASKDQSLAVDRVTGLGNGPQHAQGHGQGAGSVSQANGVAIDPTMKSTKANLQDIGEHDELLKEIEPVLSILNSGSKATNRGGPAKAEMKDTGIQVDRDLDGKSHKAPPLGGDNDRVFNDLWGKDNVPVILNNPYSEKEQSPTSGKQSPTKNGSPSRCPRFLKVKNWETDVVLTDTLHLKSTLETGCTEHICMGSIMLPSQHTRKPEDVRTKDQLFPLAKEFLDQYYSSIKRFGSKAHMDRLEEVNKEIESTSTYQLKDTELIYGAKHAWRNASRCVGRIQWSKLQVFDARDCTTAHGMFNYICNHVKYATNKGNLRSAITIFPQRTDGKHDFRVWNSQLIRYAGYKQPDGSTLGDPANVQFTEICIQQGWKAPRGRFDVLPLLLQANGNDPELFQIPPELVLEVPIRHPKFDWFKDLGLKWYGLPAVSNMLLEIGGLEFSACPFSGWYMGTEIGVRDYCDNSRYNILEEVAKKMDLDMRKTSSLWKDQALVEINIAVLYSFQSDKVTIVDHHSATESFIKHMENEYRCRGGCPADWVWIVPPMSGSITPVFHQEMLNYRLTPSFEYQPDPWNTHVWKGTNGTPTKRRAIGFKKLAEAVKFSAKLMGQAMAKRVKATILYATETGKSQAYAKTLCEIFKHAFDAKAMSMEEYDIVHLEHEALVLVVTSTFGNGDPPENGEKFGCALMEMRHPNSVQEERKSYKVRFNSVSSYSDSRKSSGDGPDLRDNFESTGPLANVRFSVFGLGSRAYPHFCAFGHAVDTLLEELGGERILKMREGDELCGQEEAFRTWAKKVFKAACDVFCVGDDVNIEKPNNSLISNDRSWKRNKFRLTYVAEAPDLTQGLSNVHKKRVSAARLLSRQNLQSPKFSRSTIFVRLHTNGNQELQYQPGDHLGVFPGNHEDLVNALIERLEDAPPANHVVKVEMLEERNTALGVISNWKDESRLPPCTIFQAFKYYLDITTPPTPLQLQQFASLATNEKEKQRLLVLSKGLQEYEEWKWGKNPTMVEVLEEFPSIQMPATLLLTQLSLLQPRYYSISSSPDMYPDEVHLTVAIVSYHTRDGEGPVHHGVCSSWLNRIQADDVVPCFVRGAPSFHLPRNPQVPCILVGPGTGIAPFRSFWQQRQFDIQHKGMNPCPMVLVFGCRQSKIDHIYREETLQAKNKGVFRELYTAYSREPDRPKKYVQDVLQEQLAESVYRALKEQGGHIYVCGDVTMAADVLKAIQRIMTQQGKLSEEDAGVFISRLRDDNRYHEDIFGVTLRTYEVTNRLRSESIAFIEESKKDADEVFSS
Data set [5] deals with Epidermal growth factor receptor (Homo sapiens, UniProt P00533). Briefly: DRUGMATRIX: Protein Tyrosine Kinase, EGF Receptor enzyme inhibition (substrate: Poly(Glu:Tyr)). The conditions noted are these: insect cells, Not Active = under 50% inhibition at 10 µM. Format: cell-based, Insect cells.
The target of a further data set is T3, Leukotriene C4 synthase (Cavia porcellus, UniProt A6XA80).
T3 sequence (A6XA80 whole entry): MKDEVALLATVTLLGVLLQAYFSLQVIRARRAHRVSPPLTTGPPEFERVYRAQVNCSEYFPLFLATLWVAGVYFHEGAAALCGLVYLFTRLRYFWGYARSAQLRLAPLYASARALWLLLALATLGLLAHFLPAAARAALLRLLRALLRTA
Briefly: biochemical. Format: tissue-based, Lung.

In general, IC50 refers to the concentration that inhibits the measured activity by half.

For the molecule `Oc1ccccc1` [PHENOL], the 50% inhibitory concentration (IC50) result (in data set [1]; in data set [2]; in data set [3]; in data set [4]; against Cytochrome P450 3A4; at Nitric oxide synthase 1) was “Not Active” throughout. The IC50 entry (in data set [5]; against Leukotriene C4 synthase) was “Not Active” in each case. Moreover, on Cytochrome P450 3A4, the Ki result is “Not Active”.
Consider `c1ccc2c(c1)Nc1ccccc1S2` [PHENOTHIAZINE], for which the IC50 entry (in data set [1]; in data set [2]; in data set [3]; in data set [4]; on Cytochrome P450 3A4; against Nitric oxide synthase 1) was “Not Active” throughout. Further, the IC50 result (in data set [5]; against Leukotriene C4 synthase) was “Not Active” in each case. The Ki result at Cytochrome P450 3A4 is recorded as “Not Active”.
`CCN1CCN(C(=O)N[C@@H](C(=O)N[C@@H]2C(=O)N3[C@@H]2SC(C)(C)[C@@H]3C(=O)O)c2ccccc2)C(=O)C1=O` [PIPERACILLIN]: the concentration for half-maximal inhibition (IC50) result (in data set [1]; in data set [2]; in data set [3]; in data set [4]; on Cytochrome P450 3A4; on Nitric oxide synthase 1) was “Not Active” throughout. Further, the IC50 entry (in data set [5]; against Leukotriene C4 synthase) was “Not Active” in each case. Besides, on Cytochrome P450 3A4, the Ki result was “Not Active”.
Turning to `COc1cc(NC(C)CCCN)c2ncccc2c1` (configuration not stated) [PRIMAQUINE], the IC50 result (in data set [1]; in data set [2]; in data set [3]; in data set [4]; at Cytochrome P450 3A4; against Nitric oxide synthase 1) was “Not Active” throughout. In addition, the 50% inhibitory concentration (IC50) entry (in data set [5]; on Leukotriene C4 synthase) was “Not Active” each time. Moreover, the Ki result on Cytochrome P450 3A4 is listed as “Not Active”.
Regarding `CC(CN1c2ccccc2Sc2ccccc21)N(C)C` (configuration not stated) [PROMETHAZINE], the concentration for half-maximal inhibition (IC50) entry (in data set [1]; in data set [2]; in data set [3]; in data set [4]; at Cytochrome P450 3A4; against Nitric oxide synthase 1) was “Not Active” in each case. Further, the IC50 result (in data set [5]; at Leukotriene C4 synthase) was “Not Active” each time. Also, the Ki result on Cytochrome P450 3A4 is “Not Active”.
As to `COc1ccc(C[C@H](N)C(=O)N[C@H]2[C@@H](O)[C@H](n3cnc4c(N(C)C)ncnc43)O[C@@H]2CO)cc1` [PUROMYCIN], the IC50 entry (in data set [1]; in data set [2]; in data set [3]; in data set [4]; on Cytochrome P450 3A4; at Nitric oxide synthase 1) was “Not Active” each time. The concentration for half-maximal inhibition (IC50) entry (in data set [5]; against Leukotriene C4 synthase) was “Not Active” in each case. In addition, the Ki entry on Cytochrome P450 3A4 is “Not Active”.
With CARBOXYMETHYLCELLULOSE, the IC50 result (in data set [1]; in data set [2]; in data set [3]; in data set [4]; against Cytochrome P450 3A4; against Nitric oxide synthase 1) was “Not Active” in each case. Besides, the IC50 entry (in data set [5]; at Leukotriene C4 synthase) was “Not Active” throughout. Further, the Ki entry (in data set [1]; in data set [2]; in data set [3]; in data set [4]; at Cytochrome P450 3A4; on Nitric oxide synthase 1) was “Not Active” each time. In addition, the Ki result (in data set [5]; on Leukotriene C4 synthase) was “Not Active” each time.
As to CHROMIC CHLORIDE, the IC50 entry (in data set [1]; in data set [2]; in data set [3]; in data set [4]; at Cytochrome P450 3A4; against Nitric oxide synthase 1) was “Not Active” in each case. Further, the 50% inhibitory concentration (IC50) was 2960 nM in data set [5] (read-out: IC50) and “Not Active” at Leukotriene C4 synthase. Besides, the Ki result (in data set [1]; in data set [2]; in data set [3]; in data set [4]; at Cytochrome P450 3A4; at Nitric oxide synthase 1) was “Not Active” in each case. Moreover, the Ki result at Leukotriene C4 synthase is “Not Active”.
For COPPER(II) OXIDE, the 50% inhibitory concentration (IC50) entry (in data set [1]; in data set [2]; in data set [3]; in data set [4]; at Cytochrome P450 3A4; against Nitric oxide synthase 1) was “Not Active” throughout. Also, the half-maximal inhibitory concentration (IC50) result (in data set [5]; at Leukotriene C4 synthase) was “Not Active” each time. Further, the Ki result (in data set [1]; in data set [2]; in data set [3]; in data set [4]; at Cytochrome P450 3A4; on Nitric oxide synthase 1) was “Not Active” each time. For the same molecule, the Ki entry (in data set [5]; on Leukotriene C4 synthase) was “Not Active” each time.
Consider POVIDONE, for which the concentration for half-maximal inhibition (IC50) entry (in data set [1]; in data set [2]; in data set [3]; in data set [4]; against Cytochrome P450 3A4; against Nitric oxide synthase 1) was “Not Active” each time. In addition, the IC50 result (in data set [5]; at Leukotriene C4 synthase) was “Not Active” in each case. In addition, the Ki entry (in data set [1]; in data set [2]; in data set [3]; in data set [4]; at Cytochrome P450 3A4; on Nitric oxide synthase 1) was “Not Active” in each case. For the same molecule, the Ki result (in data set [5]; on Leukotriene C4 synthase) was “Not Active” throughout.

The record behind these values is ChEMBL document CHEMBL1909046, “DrugMatrix in vitro pharmacology data”.
